For ten molecules, GI50 and TGI results are on record in PubChem BioAssay (NCI).

Values joined by “and” are separate entries in the source; they are usually repeats but may differ in a detail not shown here. Equal values may be shown once.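 96-well plates; 48 h exposure; 5 concentrations. Endpoints by linear interpolation between flanking doses. Not reached: highest tested concentration assigned. GI50 is the concentration that inhibits growth by half. TGI denotes the concentration required for complete inhibition of growth.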 Bounds are passed on as bounds.

The subject of the first assay is 786-0 renal. The assay is described as follows: DTP human tumour cell line panel, 48 h.
On to `CCCn1c(N)c(C(=O)N/N=C(/C)c2cc3cccc(OC)c3o2)sc1=S`, for which the GI50 was 25.5 µM and the TGI was 51.6 µM.

As for `C=CCc1cccc(/C=N/NC(=O)CN2CCN(Cc3ccccc3)CC2)c1O`, the GI50 is 2.04 µM and the TGI was 12.1 µM.

With `O=c1cc2oc3cc(O)c(O)cc3c(-c3ccccc3O)c-2cc1O`, the GI50 is 6.32 µM and the TGI is 37.2 µM.

On to `N=c1ccn2c(n1)OC1C(O)C(CO)OC12` (centres undefined), for which the GI50 is 0.652 µM and the TGI was above 1000 µM.

Turning to `C[C@H]1Oc2cc(cnc2N)-c2c(nn(C)c2C#N)CN(C)C(=O)c2ccc(F)cc21`, the GI50 is 36.2 µM and the TGI was above 100 µM.

In turn, `Cc1ccc(-c2nc3ccc([N+](=O)[O-])cc3[nH]2)cc1` returned a TGI above 100 µM.

`N#Cc1c(-c2ccc(F)cc2)c(-c2ccc(F)cc2)nn(CCO)c1=O` returned a TGI above 100 µM.

In the case of `CC(=O)c1cc2c(o1)C(=O)c1ccccc1C2=O`, the GI50 was 0.381 µM and 1.21 µM; the concentration for total growth inhibition (TGI) is 1.02 µM and 2.71 µM.

For `CCN(CC)c1nc(-c2ccc(Cl)cc2Cl)nc2ccccc12`, the GI50 is 22.2 µM and the TGI stood at 61.9 µM.

For `Cc1nc2ccccc2nc1-c1ccc(N=[N+]([O-])c2ccc(-c3nc4ccccc4nc3C)cc2)cc1`, the TGI was above 100 µM.

The next assay concerns BT-549 breast. The experiment in a line: DTP human tumour cell line panel, 48 h.
On to `CCCn1c(N)c(C(=O)N/N=C(/C)c2cc3cccc(OC)c3o2)sc1=S`, for which the GI50 was 77.5 µM and the TGI was above 100 µM.

Turning to `C=CCc1cccc(/C=N/NC(=O)CN2CCN(Cc3ccccc3)CC2)c1O`, the GI50 is 2.84 µM and the total growth inhibition concentration (TGI) worked out at 15.3 µM.

On to `O=c1cc2oc3cc(O)c(O)cc3c(-c3ccccc3O)c-2cc1O`, for which the GI50 was 14.4 µM and the TGI was determined as 40.3 µM.

Turning to `N=c1ccn2c(n1)OC1C(O)C(CO)OC12` (centres undefined), the GI50 is above 100 µM and the TGI was above 1000 µM.

On to `C[C@H]1Oc2cc(cnc2N)-c2c(nn(C)c2C#N)CN(C)C(=O)c2ccc(F)cc21`, for which the GI50 was above 100 µM and the TGI is above 100 µM.

`Cc1ccc(-c2nc3ccc([N+](=O)[O-])cc3[nH]2)cc1`: the TGI was above 100 µM.

The molecule `N#Cc1c(-c2ccc(F)cc2)c(-c2ccc(F)cc2)nn(CCO)c1=O` had a TGI of 39.9 µM.

`CC(=O)c1cc2c(o1)C(=O)c1ccccc1C2=O`: the GI50 was 0.164 µM and 0.161 µM; the TGI was 0.312 µM and 0.304 µM.

As to `CCN(CC)c1nc(-c2ccc(Cl)cc2Cl)nc2ccccc12`, the GI50 is 25.4 µM and the TGI turned out to be 54.1 µM.

Take `Cc1nc2ccccc2nc1-c1ccc(N=[N+]([O-])c2ccc(-c3nc4ccccc4nc3C)cc2)cc1`: the TGI is above 100 µM.

A further assay relates to CAKI-1 renal. The experiment in a line: DTP human tumour cell line panel, 48 h.
Turning to `CCCn1c(N)c(C(=O)N/N=C(/C)c2cc3cccc(OC)c3o2)sc1=S`, the 50% growth inhibitory concentration (GI50) was 16.1 nM and the TGI is above 100 µM.

With `C=CCc1cccc(/C=N/NC(=O)CN2CCN(Cc3ccccc3)CC2)c1O`, the GI50 is 841 nM and the TGI was 2.12 µM.

As to `O=c1cc2oc3cc(O)c(O)cc3c(-c3ccccc3O)c-2cc1O`, the GI50 is 3040 nM and the TGI came out at 11.1 µM.

In the case of `N=c1ccn2c(n1)OC1C(O)C(CO)OC12` (centres undefined), the GI50 is 394 nM; the TGI is 260 µM and > 100 µM.

Take `C[C@H]1Oc2cc(cnc2N)-c2c(nn(C)c2C#N)CN(C)C(=O)c2ccc(F)cc21`: the GI50 was 18300 nM and the TGI was above 100 µM.

`Cc1ccc(-c2nc3ccc([N+](=O)[O-])cc3[nH]2)cc1`: the TGI was above 100 µM.

`N#Cc1c(-c2ccc(F)cc2)c(-c2ccc(F)cc2)nn(CCO)c1=O` gave a TGI above 100 µM.

As to `CC(=O)c1cc2c(o1)C(=O)c1ccccc1C2=O`, the GI50 was 1450 nM and 823 nM; the concentration for total growth inhibition (TGI) is 2.93 µM and 2.24 µM.

As to `CCN(CC)c1nc(-c2ccc(Cl)cc2Cl)nc2ccccc12`, the GI50 is 16500 nM and the total growth inhibition concentration (TGI) came out at 62.4 µM.

As for `Cc1nc2ccccc2nc1-c1ccc(N=[N+]([O-])c2ccc(-c3nc4ccccc4nc3C)cc2)cc1`, the TGI is above 100 µM.

The subject of the next assay is CCRF-CEM leukemia. The assay is described as follows: DTP human tumour cell line panel, 48 h.
As to `CCCn1c(N)c(C(=O)N/N=C(/C)c2cc3cccc(OC)c3o2)sc1=S`, the GI50 is 30700 nM and the total growth inhibition concentration (TGI) was above 100 µM.

With `C=CCc1cccc(/C=N/NC(=O)CN2CCN(Cc3ccccc3)CC2)c1O`, the GI50 was 656 nM and the TGI was determined as 7.78 µM.

Regarding `O=c1cc2oc3cc(O)c(O)cc3c(-c3ccccc3O)c-2cc1O`, the GI50 is 7290 nM and the TGI was above 100 µM.

Turning to `N=c1ccn2c(n1)OC1C(O)C(CO)OC12` (centres undefined), the GI50 was 102 nM and 33.5 nM; the TGI turned out to be 92.2 µM.

As for `C[C@H]1Oc2cc(cnc2N)-c2c(nn(C)c2C#N)CN(C)C(=O)c2ccc(F)cc21`, the GI50 was above 100000 nM and the concentration for total growth inhibition (TGI) is above 100 µM.

`Cc1ccc(-c2nc3ccc([N+](=O)[O-])cc3[nH]2)cc1` came in with a TGI above 100 µM.

In turn, `N#Cc1c(-c2ccc(F)cc2)c(-c2ccc(F)cc2)nn(CCO)c1=O` came in with a TGI of 24.9 µM.

Take `CC(=O)c1cc2c(o1)C(=O)c1ccccc1C2=O`: the GI50 is 403 nM and 1020 nM; the TGI was above 100 µM.

With `CCN(CC)c1nc(-c2ccc(Cl)cc2Cl)nc2ccccc12`, the GI50 was 10400 nM and the TGI is above 100 µM.

With `Cc1nc2ccccc2nc1-c1ccc(N=[N+]([O-])c2ccc(-c3nc4ccccc4nc3C)cc2)cc1`, the TGI is above 100 µM.

For another assay, the system named is LOX IMVI melanoma. The assay is described as follows: DTP human tumour cell line panel, 48 h.
For the molecule `CCCn1c(N)c(C(=O)N/N=C(/C)c2cc3cccc(OC)c3o2)sc1=S`, the GI50 was 16500 nM and the TGI is above 100 µM.

With `C=CCc1cccc(/C=N/NC(=O)CN2CCN(Cc3ccccc3)CC2)c1O`, the GI50 was 1050 nM and the TGI came out at 6.59 µM.

With `O=c1cc2oc3cc(O)c(O)cc3c(-c3ccccc3O)c-2cc1O`, the GI50 was 4840 nM and the TGI was 34.2 µM.

In the case of `N=c1ccn2c(n1)OC1C(O)C(CO)OC12` (centres undefined), the GI50 was 497 nM; the TGI is 98.9 µM and > 100 µM.

As for `C[C@H]1Oc2cc(cnc2N)-c2c(nn(C)c2C#N)CN(C)C(=O)c2ccc(F)cc21`, the GI50 was 40500 nM and the TGI was above 100 µM.

The molecule `Cc1ccc(-c2nc3ccc([N+](=O)[O-])cc3[nH]2)cc1` showed a TGI above 100 µM.

On to `N#Cc1c(-c2ccc(F)cc2)c(-c2ccc(F)cc2)nn(CCO)c1=O`, for which the TGI was above 47.6 µM.

For the molecule `CC(=O)c1cc2c(o1)C(=O)c1ccccc1C2=O`, the GI50 was 121 nM and 187 nM; the TGI was 0.323 µM and 0.438 µM.

As to `CCN(CC)c1nc(-c2ccc(Cl)cc2Cl)nc2ccccc12`, the GI50 was 17100 nM and the TGI amounted to 36 µM.
